# “Also recorded” adds a separate entry of the source.
# Assays:
# [1] = tested on: LPS/hyperthermia-induced ALI in CD1 mice; experiment: Mouse i.t. LPS/FRH-induced acute lung injury model; details: single i.p. injection of 100-1000 μg UM101, 1000 μg UM60 or 1000 μg SB203580, 30 min before i.t. 50 μg LPS and hyperthermia
# [2] = tested on: p38-dependent phosphorylation of MK2 and Stat-1 in HeLa cells; experiment: Inhibition of substrate phosphorylation (immunoblot); format: cell-based, human; details: 10 μM SB203580 or 50 μM UM101 for 30 min
# Excerpt: Cell extracts prepared in RIPA buffer containing protease and phosphatase inhibitors were resolved by SDS-PAGE, transferred to PVDF membrane, blocked with 5% nonfat dry milk, probed with primary antibodies against phosphorylated MK2 and Stat-1, and total p38α as a loading control. Bands were detected using secondary antibodies conjugated to infrared fluorophores and infrared fluorescence imaging (Odyssey; LICOR).
# [3] = tested on: LPS-induced cytokine expression in PMA-differentiated THP1 cells; experiment: LPS-induced cytokine expression, PCR-based cytokine array; format: cell-based, human; details: 25 μM SB203580 or 10, 25, or 100 μM UM101
# [4] = molecular target: T1, p38β (Homo sapiens, UniProt Q15759); experiment: DSF, binding to p38β; details: DSF melting temperature, concentration series
# T1 construct: HA (N); made in house; host or cells: E. coli BL21
# T1 sequence (Q15759 whole entry): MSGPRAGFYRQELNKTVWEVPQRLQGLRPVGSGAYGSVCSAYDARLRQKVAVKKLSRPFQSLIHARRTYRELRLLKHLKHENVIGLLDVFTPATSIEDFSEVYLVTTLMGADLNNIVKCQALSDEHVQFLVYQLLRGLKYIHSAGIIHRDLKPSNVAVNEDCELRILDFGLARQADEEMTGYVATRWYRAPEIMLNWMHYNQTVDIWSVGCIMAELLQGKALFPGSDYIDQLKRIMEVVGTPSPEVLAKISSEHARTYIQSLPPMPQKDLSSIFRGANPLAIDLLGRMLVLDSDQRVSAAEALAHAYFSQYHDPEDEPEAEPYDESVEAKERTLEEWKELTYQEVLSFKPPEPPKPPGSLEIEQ
# [5] = tested on: IL-8-directed neutrophil TEM through HMVECLs; experiment: Neutrophil transendothelial migration (TEM) assay; format: cell-based, human; details: 10 μM, HMVECLs preincubated at 39.5° C. for 6 h
structure (smiles),measurement,setting,value
"C[S+]([O-])c1ccc(-c2nc(-c3ccncc3)c(-c3ccc(F)cc3)[nH]2)cc1 (stereo not drawn) [SB203580, reference compound]",mice that died within 24 h,[1],one of six
same,"anisomycin-stimulated phosphorylation of MK2, in words",[2],failed to completely block MK2 phosphorylation; also recorded: reduced
same,"anisomycin-stimulated phosphorylation of Stat-1, in words",[2],reduced
same,"LPS-stimulated genes of the array (16) whose expression was inhibited, in words",[3],inhibited expression of seven
same,"stabilization of p38β in DSF (binding), in words",[4],stabilized both p38α and p38β
same,reduction of hyperthermia-augmented neutrophil TEM,[5],84%
